Values quoted from earlier work, collected in article PMC9610729, “Anticholinesterase Activity of Selected Medicinal Plants from Navarra Region of Spain and a Detailed Phytochemical Investigation of Origanum vulgare L. ssp. vulgare” (Molecules, 2022).
Like-named read-outs stand apart in the source and are kept apart here.

Legend:
[1] = system: AChE; set-up: method as in PMID 35745206
[2] = system: AChE

| SMILES | AChE inhibition [1] | AChE inhibition [2] |
| --- | --- | --- |
| COc1cc(C(=O)O)cc(OC)c1O [Compound 7, Syringic acid] | high inhibition percentage |  |
| O=c1c(O)c(-c2ccc(O)cc2)oc2cc(O)cc(O)c12 [kaempferol] |  | efficient AChE inhibitors |
| O=c1cc(-c2ccc(O)c(O)c2)oc2cc(O)cc(O)c12 [luteolin] |  | to a lesser extent |
| COC(=O)c1cc(OC)c(O)c(OC)c1 [methyl syringinate] | best properties |  |
| O=c1c(O)c(-c2ccc(O)c(O)c2)oc2cc(O)cc(O)c12 [quercetin] |  | efficient AChE inhibitors |
